Test results reported in patent publication US12303497B2, “Anti-androgens for the treatment of metastatic castration-sensitive prostate cancer” (priority 2019, dated 2025).

Columns and labels:
[1] = Effect of food on apalutamide pharmacokinetics (healthy subjects); format: in vivo, human
Description: Median time to reach tmax was delayed approximately 2 hours with food.

CYP3A4 [2] = target: T1, CYP3A4 (Homo sapiens, UniProt P08684); assay: In vitro CYP inhibition
patients with CRPC = assay: Dedicated QT study (QTc interval); format: in vivo, human
From the text: The maximum mean QTcF change from baseline was 12.4 ms (2-sided 90% upper CI. 16.0 ms).

OATP1B1 = OATP1B1 (Homo sapiens, UniProt Q9Y6L6); assay: In vitro transporter substrate study
OATP1B1, sequence (Q9Y6L6 whole entry): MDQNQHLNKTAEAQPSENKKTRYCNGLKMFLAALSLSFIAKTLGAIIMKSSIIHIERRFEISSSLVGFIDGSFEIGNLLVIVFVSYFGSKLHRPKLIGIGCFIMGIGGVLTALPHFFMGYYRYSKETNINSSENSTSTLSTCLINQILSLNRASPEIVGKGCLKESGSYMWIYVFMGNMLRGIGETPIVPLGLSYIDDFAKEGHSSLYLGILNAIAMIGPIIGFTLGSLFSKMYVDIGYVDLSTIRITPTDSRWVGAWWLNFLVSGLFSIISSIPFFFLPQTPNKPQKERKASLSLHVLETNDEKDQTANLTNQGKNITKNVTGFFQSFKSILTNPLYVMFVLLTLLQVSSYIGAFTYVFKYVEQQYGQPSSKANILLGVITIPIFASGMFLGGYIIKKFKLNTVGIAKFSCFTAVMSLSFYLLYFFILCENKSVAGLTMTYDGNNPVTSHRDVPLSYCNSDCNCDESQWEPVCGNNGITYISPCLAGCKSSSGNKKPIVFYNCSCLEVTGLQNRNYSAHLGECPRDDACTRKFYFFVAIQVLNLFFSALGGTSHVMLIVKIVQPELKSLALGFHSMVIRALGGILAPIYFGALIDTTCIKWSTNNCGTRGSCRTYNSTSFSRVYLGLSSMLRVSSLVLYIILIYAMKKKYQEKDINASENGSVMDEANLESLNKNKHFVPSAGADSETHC

[3] = Ionization under physiological pH; format: physicochemical; details: relevant physiological pH condition
rat = assay: In vivo rat Comet assay
male rats = assay: Repeat-dose toxicity study in male rats (up to 26 weeks); format: in vivo, rat
[4] = Clinical pharmacokinetics of apalutamide and N-desmethyl apalutamide
CYP2D6 = CYP2D6 (Homo sapiens, UniProt P10635); assay: In vitro effect on CYP; details: therapeutically relevant concentrations
CYP2D6, sequence (P10635 whole entry): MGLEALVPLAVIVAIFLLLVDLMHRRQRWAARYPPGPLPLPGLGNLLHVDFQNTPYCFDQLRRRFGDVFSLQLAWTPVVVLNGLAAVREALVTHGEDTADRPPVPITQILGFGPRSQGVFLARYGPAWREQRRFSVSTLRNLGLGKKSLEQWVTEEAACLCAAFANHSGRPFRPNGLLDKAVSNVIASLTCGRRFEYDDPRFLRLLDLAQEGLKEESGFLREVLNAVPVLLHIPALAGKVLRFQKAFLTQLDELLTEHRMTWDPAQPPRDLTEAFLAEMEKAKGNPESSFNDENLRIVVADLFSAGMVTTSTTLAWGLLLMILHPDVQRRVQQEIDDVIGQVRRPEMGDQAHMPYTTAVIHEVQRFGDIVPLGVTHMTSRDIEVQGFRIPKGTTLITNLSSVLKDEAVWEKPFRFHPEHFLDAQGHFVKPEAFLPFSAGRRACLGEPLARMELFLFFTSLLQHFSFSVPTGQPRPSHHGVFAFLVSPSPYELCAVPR

OATP1B3 = OATP1B3 (Homo sapiens, UniProt Q9NPD5); assay: In vitro transporter substrate study
OATP1B3, sequence (Q9NPD5 whole entry): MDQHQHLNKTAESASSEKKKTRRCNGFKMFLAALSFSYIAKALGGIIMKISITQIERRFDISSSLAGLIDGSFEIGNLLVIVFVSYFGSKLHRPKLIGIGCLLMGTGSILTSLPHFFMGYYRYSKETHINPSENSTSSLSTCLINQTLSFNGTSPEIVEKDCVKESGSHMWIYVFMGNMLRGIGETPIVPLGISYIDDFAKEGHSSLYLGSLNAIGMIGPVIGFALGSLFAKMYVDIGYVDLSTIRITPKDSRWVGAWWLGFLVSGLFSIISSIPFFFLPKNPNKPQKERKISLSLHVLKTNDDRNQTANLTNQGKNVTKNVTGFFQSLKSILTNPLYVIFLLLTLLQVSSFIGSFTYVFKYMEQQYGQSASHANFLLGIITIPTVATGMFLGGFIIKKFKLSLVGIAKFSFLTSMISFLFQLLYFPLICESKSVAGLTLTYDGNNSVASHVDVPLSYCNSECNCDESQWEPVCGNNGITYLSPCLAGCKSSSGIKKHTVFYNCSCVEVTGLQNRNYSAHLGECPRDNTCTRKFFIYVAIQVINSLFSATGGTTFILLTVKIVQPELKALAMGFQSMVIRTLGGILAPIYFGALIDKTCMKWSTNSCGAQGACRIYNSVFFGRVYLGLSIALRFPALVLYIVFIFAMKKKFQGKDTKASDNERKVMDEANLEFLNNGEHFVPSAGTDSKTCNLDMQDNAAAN

[5] = Leuprolide PK sub-study in mCSPC subjects receiving leuprolide acetate; format: in vivo, human
From the text: Optional PK samples were/will be collected from at least 60 consenting subjects (in selected countries) who received or will receive leuprolide acetate as the GnRHa at the time of randomization. Samples were/will be collected on Day 1 of Cycles 1, 3, 4, 5, and 6 for analysis of leuprolide and testosterone concentrations.
Descriptive statistics of leuprolide PK data will be summarized by treatment groups (with apalutamide or placebo) and dose of leuprolide acetate. […] The percentage of subjects with testosterone levels <50 ng/dL will be summarized descriptively by treatment groups.

CYP3A4 [6] = target: T1, CYP3A4; assay: Contribution of CYP3A4 in the metabolism of apalutamide; parameters: endogenous in cells; host or cells: human subjects, in vivo; details: estimated
From the text: Metabolism is the main route of elimination of apalutamide.

[7] = target: organic anion transporter 1 (Homo sapiens, UniProt Q4U2R8); assay: In vitro transporter inhibition
organic anion transporter 1, sequence (Q4U2R8 whole entry): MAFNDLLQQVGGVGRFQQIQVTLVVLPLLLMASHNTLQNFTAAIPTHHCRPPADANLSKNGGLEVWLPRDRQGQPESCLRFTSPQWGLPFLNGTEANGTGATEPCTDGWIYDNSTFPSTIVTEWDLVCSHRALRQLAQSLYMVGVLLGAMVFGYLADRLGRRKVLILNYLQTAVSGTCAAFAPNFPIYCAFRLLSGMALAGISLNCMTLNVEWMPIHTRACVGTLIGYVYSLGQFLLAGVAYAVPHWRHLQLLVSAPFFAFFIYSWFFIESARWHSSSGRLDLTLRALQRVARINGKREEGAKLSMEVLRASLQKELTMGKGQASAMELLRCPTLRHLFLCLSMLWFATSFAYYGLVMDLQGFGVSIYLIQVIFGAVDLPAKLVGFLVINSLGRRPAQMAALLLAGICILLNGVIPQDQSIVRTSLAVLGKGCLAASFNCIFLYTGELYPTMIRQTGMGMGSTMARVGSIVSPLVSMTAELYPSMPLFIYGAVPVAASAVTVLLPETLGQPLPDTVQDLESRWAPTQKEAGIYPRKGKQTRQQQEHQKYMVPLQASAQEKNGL

[8] = system: bacterial reverse mutation (Ames) assay; format: cell-based
CYP1A2 = CYP1A2 (Homo sapiens, UniProt P05177); assay: In vitro effect on CYP; details: therapeutically relevant concentrations
CYP1A2, sequence (P05177 whole entry): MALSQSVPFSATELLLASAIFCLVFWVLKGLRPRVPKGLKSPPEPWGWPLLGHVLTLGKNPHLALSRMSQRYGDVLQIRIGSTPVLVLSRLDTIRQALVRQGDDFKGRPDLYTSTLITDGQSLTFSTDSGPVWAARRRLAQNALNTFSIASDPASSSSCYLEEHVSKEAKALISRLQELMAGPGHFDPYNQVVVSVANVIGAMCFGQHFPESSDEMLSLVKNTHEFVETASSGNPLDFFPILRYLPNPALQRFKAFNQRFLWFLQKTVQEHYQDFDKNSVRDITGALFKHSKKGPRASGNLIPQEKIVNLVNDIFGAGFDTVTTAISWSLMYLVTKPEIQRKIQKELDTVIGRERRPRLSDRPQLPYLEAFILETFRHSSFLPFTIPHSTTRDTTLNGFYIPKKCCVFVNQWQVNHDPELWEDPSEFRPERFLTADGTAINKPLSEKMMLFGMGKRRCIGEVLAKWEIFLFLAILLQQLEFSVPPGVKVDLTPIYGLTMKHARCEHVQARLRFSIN

[9] = system: multidrug and toxin extrusions (MATEs); assay: In vitro transporter inhibition; format: in vitro ADME
[10] = target: organic anion transporter 3 (OAT3) (Homo sapiens, UniProt Q8TCC7); assay: In vitro transporter inhibition
organic anion transporter 3 (OAT3), sequence (Q8TCC7 whole entry): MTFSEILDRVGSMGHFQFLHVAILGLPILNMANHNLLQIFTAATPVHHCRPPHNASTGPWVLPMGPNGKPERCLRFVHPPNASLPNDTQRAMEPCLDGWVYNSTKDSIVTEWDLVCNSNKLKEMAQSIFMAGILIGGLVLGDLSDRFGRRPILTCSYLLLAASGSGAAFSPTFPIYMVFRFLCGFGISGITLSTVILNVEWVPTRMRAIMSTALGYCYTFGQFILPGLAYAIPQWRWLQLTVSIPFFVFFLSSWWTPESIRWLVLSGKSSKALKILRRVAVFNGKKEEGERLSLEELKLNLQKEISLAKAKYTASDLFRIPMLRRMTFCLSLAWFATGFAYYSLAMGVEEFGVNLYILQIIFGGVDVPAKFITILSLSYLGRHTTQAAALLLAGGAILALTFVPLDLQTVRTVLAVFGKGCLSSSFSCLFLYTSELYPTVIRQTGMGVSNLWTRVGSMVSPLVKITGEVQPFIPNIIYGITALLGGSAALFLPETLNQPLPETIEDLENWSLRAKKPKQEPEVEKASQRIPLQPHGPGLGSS

CYP2C8 = target: T2, CYP2C8 (Homo sapiens, UniProt P10632); assay: Co-administration with gemfibrozil (strong CYP2C8 inhibitor); format: in vivo; parameters: endogenous in cells; host or cells: human subjects, in vivo; details: ERLEADA 240 mg single dose with gemfibrozil
T2 sequence (P10632 1-490): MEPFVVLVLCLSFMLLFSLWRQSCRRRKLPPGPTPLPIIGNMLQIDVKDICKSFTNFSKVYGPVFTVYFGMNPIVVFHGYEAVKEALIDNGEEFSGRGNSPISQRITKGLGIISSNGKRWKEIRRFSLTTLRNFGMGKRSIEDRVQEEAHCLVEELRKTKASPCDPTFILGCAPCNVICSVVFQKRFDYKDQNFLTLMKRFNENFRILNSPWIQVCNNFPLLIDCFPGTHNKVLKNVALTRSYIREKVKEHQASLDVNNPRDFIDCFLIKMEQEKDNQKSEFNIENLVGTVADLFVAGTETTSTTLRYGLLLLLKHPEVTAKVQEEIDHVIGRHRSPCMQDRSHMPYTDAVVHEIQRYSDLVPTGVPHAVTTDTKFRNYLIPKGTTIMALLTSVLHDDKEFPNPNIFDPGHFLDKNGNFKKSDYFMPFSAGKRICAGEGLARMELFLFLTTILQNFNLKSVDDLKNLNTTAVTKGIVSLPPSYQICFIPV

[11] = system: mouse xenograft models of prostate cancer; assay: Mouse xenograft models of prostate cancer; format: in vivo; details: decreased tumor cell proliferation and increased apoptosis
BCRP = BCRP (Homo sapiens, UniProt Q9UNQ0); assay: In vitro transporter substrate study
BCRP, sequence (Q9UNQ0 whole entry): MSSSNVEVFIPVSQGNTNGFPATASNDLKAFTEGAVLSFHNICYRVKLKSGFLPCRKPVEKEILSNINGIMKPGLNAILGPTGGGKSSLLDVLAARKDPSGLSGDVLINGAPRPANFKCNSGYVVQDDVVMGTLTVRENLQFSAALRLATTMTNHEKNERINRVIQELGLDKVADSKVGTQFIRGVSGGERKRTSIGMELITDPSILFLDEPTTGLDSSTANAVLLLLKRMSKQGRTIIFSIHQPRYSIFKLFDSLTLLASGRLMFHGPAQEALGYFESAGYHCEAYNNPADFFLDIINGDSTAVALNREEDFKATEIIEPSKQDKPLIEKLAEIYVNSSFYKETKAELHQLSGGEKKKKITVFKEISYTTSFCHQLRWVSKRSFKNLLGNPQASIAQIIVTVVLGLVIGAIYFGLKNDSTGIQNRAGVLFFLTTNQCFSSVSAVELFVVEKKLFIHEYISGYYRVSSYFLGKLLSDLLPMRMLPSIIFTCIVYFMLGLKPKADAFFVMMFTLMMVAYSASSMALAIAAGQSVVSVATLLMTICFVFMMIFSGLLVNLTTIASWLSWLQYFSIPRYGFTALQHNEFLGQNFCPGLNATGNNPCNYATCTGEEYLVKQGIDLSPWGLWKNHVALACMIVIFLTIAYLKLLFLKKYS

T1 sequence (P08684 whole entry): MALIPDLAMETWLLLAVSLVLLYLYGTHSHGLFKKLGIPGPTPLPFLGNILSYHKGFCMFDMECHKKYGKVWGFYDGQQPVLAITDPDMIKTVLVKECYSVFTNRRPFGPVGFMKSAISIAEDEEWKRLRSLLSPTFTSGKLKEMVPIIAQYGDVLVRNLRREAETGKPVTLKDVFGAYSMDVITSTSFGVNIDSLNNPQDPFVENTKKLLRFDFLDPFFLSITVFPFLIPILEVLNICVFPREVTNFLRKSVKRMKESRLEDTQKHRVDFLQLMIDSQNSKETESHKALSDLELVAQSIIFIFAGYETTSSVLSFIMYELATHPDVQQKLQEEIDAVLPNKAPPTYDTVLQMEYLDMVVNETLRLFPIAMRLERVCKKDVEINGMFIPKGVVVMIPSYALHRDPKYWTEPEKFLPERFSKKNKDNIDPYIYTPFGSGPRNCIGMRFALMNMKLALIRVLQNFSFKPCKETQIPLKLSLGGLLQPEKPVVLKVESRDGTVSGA

CNC(=O)c1ccc(N2C(=S)N(c3cnc(C#N)c(C(F)(F)F)c3)C(=O)C23CCC3)cc1F [Apalutamide, 4-[7-(6-cyano-5-trifluoromethylpyridin-3-yl)-8-oxo-6-thioxo-5,7-diazaspiro[3.4]oct-5-yl]-2-fluoro-N-methylbenzamide]
Change in Cmax and AUC with a high-fat meal vs fasting [1]: no clinically relevant changes | CYP3A4 inhibition (CYP3A4 [2]): weak inhibitors | Maximum mean QTcF change from baseline (patients with CRPC; apalutamide 240 mg once daily, 45 patients with CRPC, 2-sided 90% upper CI 16.0 ms): 12.4 ms | Exposure-QT analysis (patients with CRPC; in vivo): concentration-dependent increase in QTcF | Substrate for OATP1B1 (OATP1B1): not | Ionization [3]: not ionizable | Genotoxicity (rat): not genotoxic | Dose at which atrophy of prostate gland and seminal vesicles, aspermia/hypospermia, tubular degeneration and/or interstitial cell hyperplasia or hypertrophy were observed (male rats): ≥ 25 mg/kg/day | CL/F ([4]; after single dosing): 1.3 L/h | Pharmacokinetics in specific populations ([4]; age 18-94 years, race, mild to moderate renal impairment, mild to moderate hepatic impairment): No clinically significant differences | CL/F ([4]; at steady-state after once-daily dosing): 2.0 L/h | Mean apparent volume of distribution at steady-state ([4]; human, in vivo): approximately 276 L | Median time to achieve peak plasma concentration (tmax) ([4]; range: 1 to 5 hours): 2 h | Time to steady-state ([4]; recommended dosage (240 mg once daily)): 4 weeks | AUC at steady-state, mean ([4]; recommended dosage, SD 32 (apalutamide), 23 (N-desmethyl apalutamide)): 100000 ng·h/mL | Dose dependence of Cmax and AUC ([4]; repeated once-daily dosing of 30 to 480 mg): increased proportionally | Effect on CYP2D6 (CYP2D6): do not affect | Substrate for OATP1B3 (OATP1B3): not | Effect on the steady-state exposure of leuprolide [5]: no apparent effect | Contribution of CYP3A4 in the metabolism of apalutamide (CYP3A4 [6]; at steady-state): 37% | Contribution of CYP3A4 in the metabolism of apalutamide (CYP3A4 [6]; following single dose): 13% | Inhibition of organic anion transporter 1 [7]: do not inhibit | Mutagenicity [8]: did not induce mutations | Effect on CYP1A2 (CYP1A2): do not affect | Inhibition of MATEs [9]: inhibit | Inhibition of OAT3 [10]: inhibit | Apalutamide AUC increase (CYP2C8): 68% | Apalutamide Cmax decrease (CYP2C8): 21% | Effect on tumors [11]: decreased tumor volume | Substrate for BCRP (BCRP): not
